Data: the RepoRT retention time repository (doi:10.1016/j.jchromb.2020.122105)

How the values were obtained:
Details in all cases: stereoisomer not certain
[1] = RP, Waters ACQUITY UPLC BEH C18, 100 × 2.1 mm, 1.7 µm, 0.1 mL/min, estimated dead time 2.2 min; A: water + 0.1% formic acid, pH 3; B: methanol + 0.1% formic acid, pH 3; gradient (min/%B) 0/5 5/5 25/95 25.1/100 35/100 35.1/5 45/5
[2] = RP, Waters CORTECS T3, 100 × 2.1 mm, 2.7 µm, 0.2 mL/min, estimated dead time 1.1 min; A: water + 0.1% formic acid, pH 3; B: methanol + 0.1% formic acid, pH 3; gradient (min/%B) 0/0 1/0 6/5 30/100 35/100 35.1/0 40/0
[3] = RP, Waters CORTECS T3, 100 × 2.1 mm, 2.7 µm, 0.3 mL/min, estimated dead time 0.73 min; A: water + 0.1% formic acid, pH 3; B: methanol + 0.1% formic acid, pH 3; gradient (min/%B) 0/0 1/0 6/5 30/100 35/100 35.1/0 40/0
[4] = RP, Waters CORTECS T3, 100 × 2.1 mm, 2.7 µm, 0.15 mL/min, estimated dead time 1.5 min; A: water + 0.1% formic acid, pH 3; B: methanol + 0.1% formic acid, pH 3; gradient (min/%B) 0/0 1/0 6/5 30/100 35/100 35.1/0 40/0
[5] = RP, Waters CORTECS T3, 100 × 2.1 mm, 2.7 µm, 0.3 mL/min, estimated dead time 0.73 min; A: water + 0.1% formic acid, pH 3; B: methanol + 0.1% formic acid, pH 3; gradient (min/%B) 0/0 5/0 25/100 30/100 30.1/0 35/0
[6] = RP, Waters ACQUITY UPLC BEH C18, 100 × 2.1 mm, 1.7 µm, 0.1 mL/min, estimated dead time 2.2 min; A: water + 0.1% formic acid, pH 3; B: methanol + 0.1% formic acid, pH 3; gradient (min/%B) 0/5 5/5 25/100 30/100 30.1/5 35/5
[7] = RP, Thermo Scientific Hypercarb, 150 × 2.1 mm, 5 µm, 0.1 mL/min, estimated dead time 3.3 min; A: water + 0.1% formic acid, pH 3; B: methanol + 0.1% formic acid, pH 3; gradient (min/%B) 0/5 5/5 20/100 35/100 35.1/5 45/5
[8] = HILIC, Merck SeQuant ZIC-HILIC, 150 × 2.1 mm, 5 µm, 0.75 mL/min, estimated dead time 0.44 min; A: water + 10 mM ammonium formate, pH 6; B: 5% water + 95% acetonitrile + 10 mM ammonium formate, pH 6; gradient (min/%B) 0/95 5/95 20/57 25/57 30/95 40/95
[9] = RP, Waters CORTECS T3, 100 × 2.1 mm, 2.7 µm, 0.3 mL/min, estimated dead time 0.73 min; A: water + 0.1% formic acid, pH 3; B: methanol + 0.1% formic acid, pH 3; gradient (min/%B) 0/5 5/5 25/95 25.1/100 35/100 35.1/5 45/5
[10] = RP, Waters ACQUITY UPLC BEH C18, 100 × 2.1 mm, 1.7 µm, 0.2 mL/min, estimated dead time 1.1 min; A: water + 0.025% formic acid + 20 mM ammonium acetate + 0.055% ammonium hydroxide, pH 7; B: methanol; gradient (min/%B) 0/5 5/5 25/100 30/100 30.1/5 35/5
[11] = RP, Waters CORTECS T3, 100 × 2.1 mm, 2.7 µm, 0.3 mL/min, estimated dead time 0.73 min; A: water + 0.1% formic acid, pH 3; B: methanol + 0.1% formic acid, pH 3; gradient (min/%B) 0/5 5/5 25/100 30/100 30.1/5 35/5
[12] = RP, Waters CORTECS T3, 100 × 2.1 mm, 2.7 µm, 0.1 mL/min, estimated dead time 2.2 min; A: water + 0.1% formic acid, pH 3; B: methanol + 0.1% formic acid, pH 3; gradient (min/%B) 0/5 5/5 25/95 25.1/100 35/100 35.1/5 45/5
[13] = HILIC, Merck SeQuant ZIC-HILIC, 150 × 2.1 mm, 5 µm, 0.75 mL/min, estimated dead time 0.44 min; A: water + 0.1% acetic acid + 10 mM ammonium acetate, pH 4; B: 5% water + 95% acetonitrile + 0.1% acetic acid + 10 mM ammonium acetate, pH 4; gradient (min/%B) 0/95 5/95 20/57 25/57 30/95 40/95
[14] = RP, Waters CORTECS T3, 100 × 2.1 mm, 2.7 µm, 0.25 mL/min, estimated dead time 0.88 min; A: water + 0.1% formic acid, pH 3; B: methanol + 0.1% formic acid, pH 3; gradient (min/%B) 0/0 1/0 6/5 30/100 35/100 35.1/0 40/0
[15] = RP, Waters CORTECS T3, 100 × 2.1 mm, 2.7 µm, 0.2 mL/min, estimated dead time 1.1 min; A: water + 0.045% formic acid + 0.11% ammonium hydroxide, pH 7; B: methanol; gradient (min/%B) 0/5 5/5 25/95 25.1/100 35/100 35.1/5 45/5
[16] = RP, Waters CORTECS T3, 100 × 2.1 mm, 2.7 µm, 0.1 mL/min, estimated dead time 2.2 min; A: water + 0.1% formic acid, pH 3; B: methanol + 0.1% formic acid, pH 3; gradient (min/%B) 0/0 1/0 6/5 30/100 35/100 35.1/0 40/0
[17] = HILIC, Waters XBridge BEH Amide, 100 × 2.1 mm, 2.5 µm, 0.5 mL/min, estimated dead time 0.44 min; A: water + 0.1% acetic acid + 10 mM ammonium acetate, pH 4; B: 5% water + 95% acetonitrile + 0.1% acetic acid + 10 mM ammonium acetate, pH 4; gradient (min/%B) 0/95 5/95 20/57 25/57 30/95 40/95
[18] = RP, Waters ACQUITY UPLC BEH C18, 100 × 2.1 mm, 1.7 µm, 0.2 mL/min, estimated dead time 1.1 min; A: water + 0.025% formic acid + 20 mM ammonium acetate + 0.055% ammonium hydroxide, pH 7; B: methanol; gradient (min/%B) 0/5 5/5 25/100 30/100 30.1/5 35/5; remark: listed apart in the source
[19] = RP, Waters ACQUITY UPLC BEH C18, 100 × 2.1 mm, 1.7 µm, 0.1 mL/min, estimated dead time 2.2 min; A: water + 0.045% formic acid + 0.11% ammonium hydroxide, pH 7; B: methanol; gradient (min/%B) 0/5 5/5 25/95 25.1/100 35/100 35.1/5 45/5
[20] = RP, Waters CORTECS T3, 100 × 2.1 mm, 2.7 µm, 0.15 mL/min, estimated dead time 1.5 min; A: water + 0.1% formic acid, pH 3; B: methanol + 0.1% formic acid, pH 3; gradient (min/%B) 0/5 5/5 25/95 25.1/100 35/100 35.1/5 45/5
[21] = RP, Waters CORTECS T3, 100 × 2.1 mm, 2.7 µm, 0.3 mL/min, estimated dead time 0.73 min; A: water + 0.1% formic acid, pH 3; B: methanol + 0.1% formic acid, pH 3; gradient (min/%B) 0/0 5/0 25/100 30/100 30.1/0 35/0; remark: listed apart in the source
[22] = RP, Waters CORTECS T3, 100 × 2.1 mm, 2.7 µm, 0.3 mL/min, estimated dead time 0.73 min; A: water + 0.1% formic acid, pH 3; B: methanol + 0.1% formic acid, pH 3; gradient (min/%B) 0/0 1/0 6/5 30/100 35/100 35.1/0 40/0; remark: listed apart in the source
[23] = RP, Waters CORTECS T3, 100 × 2.1 mm, 2.7 µm, 0.25 mL/min, estimated dead time 0.88 min; A: water + 0.1% formic acid, pH 3; B: methanol + 0.1% formic acid, pH 3; gradient (min/%B) 0/5 5/5 25/95 25.1/100 35/100 35.1/5 45/5
[24] = RP, Waters ACQUITY UPLC BEH C18, 100 × 2.1 mm, 1.7 µm, 0.2 mL/min, estimated dead time 1.1 min; A: water + 0.1% formic acid, pH 3; B: methanol + 0.1% formic acid, pH 3; gradient (min/%B) 0/5 5/5 25/100 30/100 30.1/5 35/5
[25] = RP, Waters CORTECS T3, 100 × 2.1 mm, 2.7 µm, 0.2 mL/min, estimated dead time 1.1 min; A: water + 0.1% formic acid, pH 3; B: methanol + 0.1% formic acid, pH 3; gradient (min/%B) 0/0 1/0 6/5 30/100 35/100 35.1/0 40/0; remark: listed apart in the source
[26] = RP, Waters ACQUITY UPLC BEH C18, 100 × 2.1 mm, 1.7 µm, 0.1 mL/min, estimated dead time 2.2 min; A: water + 0.1% formic acid, pH 3; B: methanol + 0.1% formic acid, pH 3; gradient (min/%B) 0/5 5/5 25/95 25.1/100 35/100 35.1/5 45/5; remark: listed apart in the source
[27] = RP, Waters CORTECS T3, 100 × 2.1 mm, 2.7 µm, 0.2 mL/min, estimated dead time 1.1 min; A: water + 0.1% formic acid, pH 3; B: methanol + 0.1% formic acid, pH 3; gradient (min/%B) 0/5 5/5 25/95 25.1/100 35/100 35.1/5 45/5

| LC retention time [1] [min] | LC retention time [2] [min] | LC retention time [3] [min] | LC retention time [4] [min] | LC retention time [5] [min] | LC retention time [6] [min] | LC retention time [7] [min] | LC retention time [9] [min] | LC retention time [10] [min] | LC retention time [11] [min] | LC retention time [12] [min] | LC retention time [13] [min] | LC retention time [14] [min] | LC retention time [15] [min] | LC retention time [16] [min] | LC retention time [17] [min] | LC retention time [18] [min] | LC retention time [19] [min] | LC retention time [24] [min] | LC retention time [26] [min] | Structure (SMILES) | other results |
| --- | --- | --- | --- | --- | --- | --- | --- | --- | --- | --- | --- | --- | --- | --- | --- | --- | --- | --- | --- | --- | --- |
| 15.6 | 13 | 11.4 | 14.5 | 11.1 | 15.4 |  | 9.92 | 11.9 | 9.85 | 15.2 | 0.95 | 12.1 | 11.7 | 11.6 | 0.91 | 11.9 | 15.6 |  |  | NC(=O)Cc1c[nH]c2ccccc12 [INDOLE-3-ACETAMIDE] |  |
| 18.6 | 16.4 | 14.8 | 17.9 | 13.8 | 18.2 |  | 13.1 |  | 12.9 | 18.2 |  | 15.5 |  | 14.7 |  |  | 11.3 |  |  | O=C([O-])Cc1c[nH]c2ccccc12 [INDOLE-3-ACETATE] |  |
| 2.66 | 1.38 | 0.92 | 1.87 | 0.93 | 2.74 | 18.5 | 0.9 |  | 0.93 |  | 13.8 | 1.13 |  |  | 14.5 | 1.36 |  | 1.42 | 2.7 | CCC(NC(=O)CCC(N)C(=O)O)C(=O)NCC(=O)O (stereo unspecified) [OPHTHALMIC ACID] | LC retention time [20]: 1.78 min; LC retention time [21]: 0.93 min; LC retention time [22]: 0.96 min; LC retention time [23]: 1.08 min; LC retention time [25]: 1.38 min; LC retention time [27]: 2.74 min |
| 30.2 | 30.7 | 29.7 | 31.9 | 25.3 | 29.5 |  | 26.1 | 25.4 | 25.1 | 30.1 |  | 30.1 | 25.9 | 26.5 |  |  | 29.5 |  |  | C=Cc1c(C)c2cc3[nH]c(cc4nc(cc5nc(cc1[nH]2)C(C)=C5CCC(=O)O)C(CCC(=O)O)=C4C)c(C)c3C=C [PROTOPORPHYRIN] |  |
| 2.66 | 1.34 | 0.92 | 1.83 | 0.89 | 2.74 | 15.7 | 0.9 | 7.17 |  |  |  | 1.09 |  |  |  |  |  | 1.38 | 2.7 | NC(=O)C1CCCN1C(=O)C(Cc1cnc[nH]1)NC(=O)C1CCC(=O)N1 (stereo unspecified) [THYROTROPIN RELEASING HORMONE] | LC retention time [27]: 2.67 min |

| Structure (SMILES) | LC retention time [1] [min] | LC retention time [2] [min] | LC retention time [3] [min] | LC retention time [4] [min] | LC retention time [5] [min] | LC retention time [6] [min] | LC retention time [7] [min] | LC retention time [9] [min] | LC retention time [10] [min] | LC retention time [11] [min] | LC retention time [12] [min] | LC retention time [13] [min] | LC retention time [14] [min] | LC retention time [15] [min] | LC retention time [16] [min] | LC retention time [17] [min] | LC retention time [18] [min] | LC retention time [19] [min] | LC retention time [24] [min] | LC retention time [26] [min] | other results |
| --- | --- | --- | --- | --- | --- | --- | --- | --- | --- | --- | --- | --- | --- | --- | --- | --- | --- | --- | --- | --- | --- |
| CC1NCCc2cc(O)c(O)cc21 (stereo unspecified) [1-METHYL-6,7-DIHYDROXY-1,2,3,4-TETRAHYDROISOQUINOLINE] | 2.66 | 1.34 | 0.92 | 1.83 | 0.93 | 2.74 | 17.8 | 0.9 |  |  |  |  |  |  |  |  |  |  |  |  | LC retention time [8]: 8.92 min |
